Here are results for 15 compounds from patent US20150274777A1, “KETOAMIDE IMMUNOPROTEASOME INHIBITORS” (HOFFMANN-LA ROCHE INC., priority 2012, published 2015).

One assay concerns the target T1, β5i (Homo sapiens, UniProt P20618+P28062).
T1 construct: protease activity associated with the proteasome complex in cultured cells; endogenous in cells; host or cells: Ramos cells
Nature of the assay: Cell-Based Proteasome Activity/Selectivity Assay (Ramos cells), substrate (ANW)2Rh110. To be noted: highest concentration tested 20 μM, read-out: Ic50 ramos:ac-(anw)2-r110. The procedure, abridged:
(§1)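 Ramos cells (5×10^4/well in DPBS) were treated with 4-fold compound dilutions (top 20 μM) for 30 min at 37 °C. A 2× mix of 0.025% digitonin, 20 μM of each Rh110 substrate and 0.5 M sucrose was added, then incubated 120 min at room temperature. Rh110 fluorescence was read at 500/519 nm.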

The next assay has as its target T2, β5c (Homo sapiens, UniProt P20618+P28074).
T2 construct: protease activity associated with the proteasome complex in cultured cells; endogenous in cells; host or cells: Ramos cells
Nature of the assay: Cell-Based Proteasome Activity/Selectivity Assay (Ramos cells), substrate (WLA)2Rh110. To be noted: highest concentration tested 20 μM. The procedure, abridged:
as §1

The next assay concerns β2c/2i. Nature of the assay: Cell-Based Proteasome Activity/Selectivity Assay (Ramos cells), substrate (KQL)2Rh110. As to conditions: highest concentration tested 20 μM. An outline of the steps: as §1
The target in the next assay is T3, β1i (Homo sapiens, UniProt P28065+P40306).
T3 construct: protease activity associated with the proteasome complex in cultured cells; endogenous in cells; host or cells: Ramos cells
As to the kind of experiment: Cell-Based Proteasome Activity/Selectivity Assay (Ramos cells), substrate (PAL)2Rh110. To be noted: highest concentration tested 20 μM. An outline of the steps: as §1

The next assay addresses T4, β1c (Homo sapiens, UniProt P28072+Q99436).
T4 construct: protease activity associated with the proteasome complex in cultured cells; endogenous in cells; host or cells: Ramos cells
As to the kind of experiment: Cell-Based Proteasome Activity/Selectivity Assay (Ramos cells), substrate (LLE)2 Rh110. To be noted: highest concentration tested 20 μM. An outline of the steps:
as §1

In assay [1] the test system is IP10 level in PBMCs stimulated with CpG Type A. Nature of the assay: PBMC IP-10 Assay. It is filed as cell-based. To be noted: CpG Type A 2.5 μM. An outline of the steps: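 Human PBMCs (~2×10^5/well) preincubated 60 min at 37° C. with titrated compound (1% DMSO final), then stimulated with CpG Type A (ODN 2216) at 2.5 μM final overnight. Supernatant IP-10 quantified by AlphaLISA; viability of remaining cells by ATP luminescence.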

Bounds are passed on as bounds.

Usually IC50 stands for the concentration at which inhibition is half-maximal. As a reminder, the EC50 is the concentration giving half of the maximal effect. As to `C[C@H](NC(=O)OCc1ccccc1)C(=O)N[C@@H](Cc1c[nH]c2ccccc12)C(=O)N[C@@H](Cc1ccccc1)C(=O)C(=O)N(C)Cc1ccccc1` [Example 38, {(S)-1-[(S)-1-[(S)-1-Benzyl-2-(benzyl-methyl-carbamoyl)-2-oxo-ethylcarbamoyl]-2-(1H-indol-3-yl)-ethylcarbamoyl]-ethyl}-carbamic acid benzyl ester], the IC50 at β5i is 1.21 µM; at β5c, 4.11 µM; in the assay with β2c/2i, > 20 µM; against β1i, > 20 µM; on β1c, > 20 µM. This compound also returned an EC50 in assay [1] of 10.1 µM.

For the compound `C[C@H](NC(=O)c1cc2ccccc2n1C)C(=O)N[C@@H](Cc1ccccc1)C(=O)N[C@@H](Cc1ccccc1)C(=O)C(=O)NCc1ccccc1` [Example 44, 1-Methyl-1H-indole-2-carboxylic acid {(S)-1-[(S)-1-((S)-1-benzyl-2-benzylcarbamoyl-2-oxo-ethylcarbamoyl)-2-phenyl-ethylcarbamoyl]-ethyl}-amide], the IC50 on β5i is 0.013 µM; on β5c, 1.24 µM; in the assay with β2c/2i it was > 20 µM; on β1i it was 13.1 µM; on β1c, > 20 µM. The EC50 in assay [1] is 0.596 µM.

As for `C[C@H](NC(=O)OCc1ccccc1)C(=O)N[C@@H](Cc1c[nH]c2ccccc12)C(=O)N[C@@H](Cc1ccccc1)C(=O)C(=O)NCc1ccccn1` [Example 34, {(S)-1-[(S)-1-{(S)-1-Benzyl-2-oxo-2-[(pyridin-2-ylmethyl)-carbamoyl]-ethylcarbamoyl}-2-(1H-indol-3-yl)-ethylcarbamoyl]-ethyl}-carbamic acid benzyl ester], the IC50 on β5i is 0.01 µM; at β5c, 1.09 µM; with β2c/2i, > 20 µM; against β1i, 0.589 µM; against β1c, 13.5 µM. In assay [1], this compound gave an EC50 of 1.16 µM.

As for `CC1=C(C(=O)N[C@@H](C)C(=O)N[C@@H](Cc2c[nH]c3ccccc23)C(=O)N[C@@H](Cc2ccccc2)C(=O)C(=O)NCc2ccccc2)Cc2ccccc21` [Example 48, 3-Methyl-1H-indene-2-carboxylic acid {(S)-1-[(S)-1-((S)-1-benzyl-2-benzylcarbamoyl-2-oxo-ethylcarbamoyl)-2-(1H-indol-3-yl)-ethylcarbamoyl]-ethyl}-amide], the IC50 on β5i was 0.008 µM; at β5c it was 1.01 µM; in the assay with β2c/2i, > 20 µM; on β1i, 1.17 µM; against β1c, 13.6 µM. In assay [1], this compound registered an EC50 of 0.615 µM.

Consider `C[C@H](NC(=O)C1Cc2ccccc2C1)C(=O)N[C@@H](Cc1ccccc1)C(=O)N[C@@H](Cc1ccccc1)C(=O)C(=O)NCc1ccccc1` [Example 43, Indan-2-carboxylic acid {(S)-1-[(S)-1-((S)-1-benzyl-2-benzylcarbamoyl-2-oxo-ethylcarbamoyl)-2-phenyl-ethylcarbamoyl]-ethyl}-amide], for which the IC50 at β5i was 0.003 µM; against β5c, 0.192 µM; with β2c/2i it was > 20 µM; at β1i, 0.257 µM; against β1c it was 18.3 µM. Further, the EC50 in assay [1] worked out at 0.784 µM.

Turning to `C[C@H](NC(=O)OCc1ccccc1)C(=O)N[C@@H](Cc1c[nH]c2ccccc12)C(=O)N[C@@H](Cc1ccccc1)C(=O)C(=O)NC1CC1` [Example 32, {(S)-1-[(S)-1-((S)-1-Benzyl-2-cyclopropylcarbamoyl-2-oxo-ethylcarbamoyl)-2-(1H-indol-3-yl)-ethylcarbamoyl]-ethyl}-carbamic acid benzyl ester], the IC50 was 0.011 µM on β5i; 0.365 µM against β5c; > 20 µM in the assay on β2c/2i; 0.266 µM on β1i; 12.2 µM at β1c. Also, the EC50 in assay [1] came out at 0.94 µM.

On to `CCCC[C@H](NC(=O)[C@H](CCS(C)(=O)=O)NC(=O)[C@H](C)NC(=O)C1=C(C)c2ccccc2C1)C(=O)C(=O)NCc1ccccc1` [Example 15, 3-Methyl-1H-indene-2-carboxylic acid {(S)-1-[(S)-1-((S)-1-benzylaminooxalyl-pentylcarbamoyl)-3-methanesulfonyl-propylcarbamoyl]-ethyl}-amide], for which the IC50 at β5i is 0.101 µM; against β5c it was 3.54 µM; in the assay on β2c/2i, > 20 µM; against β1i, 0.21 µM; against β1c, 8.43 µM. In assay [1], this compound yielded an EC50 of 1.91 µM.

`COc1ccc(C[C@H](NC(=O)[C@H](C)NC(=O)CN2CCOc3ccccc32)C(=O)N[C@@H](Cc2ccccc2)C(=O)C(=O)NCc2ccccc2)cc1` [Example 35, (S)—N-Benzyl-3-[(S)-2-[(S)-2-(2-2,3-dihydro-benzo[1,4]oxazin-4-yl-acetylamino)-propionylamino]-3-(4-methoxy-phenyl)-propionylamino]-2-oxo-4-phenyl-butyramide]: the IC50 on β5i is 0.004 µM; on β5c it was 0.261 µM; with β2c/2i, > 20 µM; against β1i, 0.395 µM; against β1c it was 13.4 µM. The compound also registered an EC50 in assay [1] of 0.615 µM.

Turning to `CCCC[C@H](NC(=O)[C@H](Cc1c[nH]c2ccccc12)NC(=O)[C@H](C)NC(=O)C1=C(C)c2ccccc2C1)C(=O)C(=O)N[C@@H](C)c1ccccc1` [Example 7], the IC50 on β5i was 0.102 µM; at β5c it was 3.05 µM; with β2c/2i, > 20 µM; at β1i it was 0.712 µM; on β1c, 13.2 µM. In addition, a half-maximal response in assay [1] (EC50) required 4.01 µM.

For `COc1ccc(C[C@H](NC(=O)[C@H](C)NC(=O)CN2CCOCC2)C(=O)N[C@@H](Cc2ccccc2)C(=O)C(=O)NCc2ccccc2)cc1` [Example 46, (S)—N-Benzyl-3-{(S)-3-(4-methoxy-phenyl)-2-[(S)-2-(2-morpholin-4-yl-acetylamino)-propionylamino]-propionylamino}-2-oxo-4-phenyl-butyramide], the IC50 on β5i was 0.121 µM; against β5c, 4.41 µM; with β2c/2i, > 20 µM; against β1i it was 2.17 µM; against β1c, > 20 µM. The EC50 in assay [1] was determined as 5.78 µM.

Turning to `COc1ccc(C[C@H](NC(=O)[C@H](C)NC(=O)C2Cc3ccccc3C2)C(=O)N[C@@H](Cc2ccccc2)C(=O)C(=O)NCc2ccccc2)cc1` [Example 19, Indan-2-carboxylic acid {(S)-1-[(S)-1-((S)-1-benzyl-2-benzylcarbamoyl-2-oxo-ethylcarbamoyl)-2-(4-methoxy-phenyl)-ethylcarbamoyl]-ethyl}-amide], the IC50 at β5i was 0.003 µM; on β5c, 0.055 µM; in the assay on β2c/2i, > 20 µM; on β1i, 0.234 µM; against β1c, > 20 µM. The EC50 in assay [1] came out at 0.695 µM.

For the compound `COC[C@H](NC(=O)C1Cc2ccccc2C1)C(=O)N[C@@H](Cc1ccc(OC)cc1)C(=O)N[C@@H](Cc1ccccc1)C(=O)C(=O)NCc1ccccc1` [Example 23, Indan-2-carboxylic acid {(S)-1-[(S)-1-((S)-1-benzyl-2-benzylcarbamoyl-2-oxo-ethylcarbamoyl)-2-(4-methoxy-phenyl)-ethylcarbamoyl]-2-methoxy-ethyl}-amide], the IC50 at β5i is 0.001 µM; against β5c it was 0.005 µM; with β2c/2i, > 20 µM; against β1i it was 0.097 µM; on β1c, 7.32 µM. In addition, the EC50 in assay [1] is 0.356 µM.

Take `CCCC[C@H](NC(=O)[C@H](Cc1c[nH]c2ccccc12)NC(=O)[C@H](C)NC(=O)C1=C(C)c2ccccc2C1)C(=O)C(=O)NCc1ccccc1` [Example 5, 3-Methyl-1H-indene-2-carboxylic acid {(S)-1-[(S)-1-((S)-1-benzylaminooxalyl-pentylcarbamoyl)-2-(1H-indol-3-yl)-ethylcarbamoyl]-ethyl}-amide]: the IC50 at β5i was 0.018 µM; against β5c, 0.56 µM; in the assay with β2c/2i it was > 20 µM; against β1i it was 0.142 µM; at β1c, 3.35 µM. The EC50 in assay [1] was 1.22 µM.

Take `COc1ccc(C[C@H](NC(=O)[C@H](C)NC(=O)CCc2ccnn2C)C(=O)N[C@@H](Cc2ccccc2)C(=O)C(=O)NCc2ccccc2)cc1` [Example 41, (S)—N-Benzyl-3-((S)-3-(4-methoxy-phenyl)-2-{(S)-2-[3-(2-methyl-2H-pyrazol-3-yl)-propionylamino-]propionylamino}-propionylamino)-2-oxo-4-phenyl-butyramide]: the IC50 at β5i was 0.026 µM; on β5c it was 0.385 µM; in the assay on β2c/2i it was > 20 µM; at β1i it was 0.697 µM; against β1c it was 18.4 µM. The same compound had an EC50 in assay [1] of 1.5 µM.

For the compound `CCn1nccc1C(=O)N[C@@H](C)C(=O)N[C@@H](Cc1ccccc1)C(=O)N[C@@H](Cc1ccccc1)C(=O)C(=O)NCc1ccccc1` [Example 54, 2-Ethyl-2H-pyrazole-3-carboxylic acid {(S)-1-[(S)-1-((S)-1-benzyl-2-benzylcarbamoyl-2-oxo-ethylcarbamoyl)-2-phenyl-ethylcarbamoyl]-ethyl}-amide], the IC50 is 0.066 µM on β5i; 1.68 µM on β5c; > 20 µM in the assay with β2c/2i; 0.609 µM at β1i; 18.5 µM at β1c. This compound also returned an EC50 in assay [1] of 3.45 µM.
